Where a name gives a salt, the structure may show the parent alone.
Row | SMILES | melting point
1 | CNCC1=C(C#N)C(c2cccc3nonc23)c2c[nH]nc2N1.O=C(O)C(F)(F)F (stereo not drawn) | 174 °C
2 | N#CC1=C(C2CCCNC2)Nc2n[nH]cc2C1c1cccc(C#N)c1Br.O=C(O)C(F)(F)F (stereo not drawn) | 225 °C
3 | N#CC1=C(C2CCCCN2)Nc2n[nH]cc2C1c1cccc(C#N)c1Br.O=C(O)C(F)(F)F (stereo not drawn) | 232 °C
4 | N#CC1=C(C2CNCCO2)Nc2n[nH]cc2C1c1cccc(C#N)c1Br.O=C(O)C(F)(F)F (stereo not drawn) | 236 °C
5 | Cl.N#CC1=C(C2CCNCC2)Nc2n[nH]cc2C1c1cccc2nonc12 (stereo not drawn) | > 270 °C
6 | Cl.N#CC1=C(C2CCNCC2)Nc2n[nH]cc2C1c1cccc(C#N)c1Br (stereo not drawn) | > 270 °C
7 | Cl.Cl.Cl.N#CC1=C(CN2CCN(c3cccc4ccccc34)CC2)Nc2n[nH]cc2C1c1ccccc1Cl (stereo not drawn) | 203 to 205 °C (dec.)
8 | CN1CCCN(CC2=C(C#N)C(c3ccccc3Cl)c3c[nH]nc3N2)CC1.Cl.Cl (stereo not drawn) | 204 to 206 °C (dec.)
9 | Cl.Cl.Cl.N#CC1=C(CN2CCN(c3ccccc3)CC2)Nc2n[nH]cc2C1c1ccccc1Cl (stereo not drawn) | 217 to 220 °C (dec.)
10 | CCCC1=C([N+](=O)[O-])C(c2ccccc2[N+](=O)[O-])c2c[nH]nc2N1 (stereo not drawn) | 204 °C
11 | CCOC(=O)C1=C(C)Nc2n[nH]cc2C1c1ccccc1Cl (stereo not drawn) [Example 1, Ethyl 4-(2-chlorophenyl)-4,7-dihydro-6-methyl-2H-pyrazolo[3,4-b]pyridine-5-carboxylate] | 217 to 221 °C
12 | CCOC(=O)C1=C(C)Nc2n[nH]cc2C1c1ccccc1OC (stereo not drawn) [Example 2, Ethyl 4,7-dihydro-4-(2-methoxyphenyl)-6-methyl-2H-pyrazolo[3,4-b]pyridine-5-carboxylate] | 196 to 200 °C
13 | CCOC(=O)C1=C(C)Nc2n[nH]cc2C1c1ccccc1C(F)(F)F (stereo not drawn) [Example 3, Ethyl 4,7-dihydro-6-methyl-4-(2-trifluoromethylphenyl)-2H-pyrazolo[3,4-b]pyridine-5-carboxylate] | 259 to 262 °C
14 | COC(=O)C1=C(C)Nc2n[nH]cc2C1c1ccccc1Cl (stereo not drawn) [Example 4, Methyl 4-(2-chlorophenyl)-4,7-dihydro-6-methyl-2H-pyrazolo[3,4-b]pyridine-5-carboxylate] | 235 °C
15 | CC1=C(C(=O)OC(C)(C)C)C(c2ccccc2Cl)c2c[nH]nc2N1 (stereo not drawn) [Example 5, t-Butyl 4-(2-chlorophenyl)-4,7-dihydro-6-methyl-2H-pyrazolo[3,4-b]pyridine-5-carboxylate] | 207 °C
16 | CC1=C(C(=O)OCc2ccccc2)C(c2ccccc2Cl)c2c[nH]nc2N1 (stereo not drawn) [Example 7, Benzyl 4-(2-chlorophenyl)-4,7-dihydro-6-methyl-2H-pyrazolo[3,4-b]pyridine-5-carboxylate] | 234 °C
17 | CC1=C(C(=O)N(C)C)C(c2ccccc2Cl)c2c[nH]nc2N1 (stereo not drawn) [Example 8, 4-(2-Chlorophenyl)-5-dimethylaminocarbonyl-4,7-dihydro-6-methyl-2H-pyrazolo[3,4-b]pyridine] | 229 °C
18 | CC1=C(C(=O)NN)C(c2ccccc2Cl)c2c[nH]nc2N1 (stereo not drawn) [Example 9, 4-(2-Chlorophenyl)-5-hydrazinocarbonyl-4,7-dihydro-6-methyl-2H-pyrazolo[3,4-b]pyridine] | 220 °C
19 | CCOC(=O)C1=C(C(F)(F)F)Nc2n[nH]cc2C1c1ccccc1 (stereo not drawn) [Example 12, Ethyl 4,7-dihydro-4-phenyl-6-trifluoromethyl-2H-pyrazolo[3,4-b]pyridine-5-carboxylate] | 110 to 115 °C
20 | CCOC(=O)C1=C(C(F)(F)F)Nc2n[nH]cc2C1c1ccccc1F (stereo not drawn) [Example 13, Ethyl 4-(2-fluorophenyl)-4,7-dihydro-6-trifluoromethyl-2H-pyrazolo[3,4-b]pyridine-5-carboxylate] | 119 to 120 °C
21 | CCOC(=O)C1=C(C(F)(F)F)Nc2n[nH]cc2C1c1ccccc1Cl.O=C(O)/C=C\C(=O)O (stereo not drawn) [Example 14, Ethyl 4-(2-chlorophenyl)-4,7-dihydro-6-trifluoromethyl-2H-pyrazolo[3,4-b]pyridine-5-carboxylate maleate] | 171 to 172 °C

Continued, values first:

Row | melting point | SMILES
22 | 174 °C | CN1CCCC(C2=C(C#N)C(c3cccc(C#N)c3Br)c3c[nH]nc3N2)C1 (stereo not drawn) (as salt: trifluoroacetate) [Example 1041, 4-(2-Bromo-3-cyanophenyl)-5-cyano-4,7-dihydro-6-(1-methylpiperidin-3-yl)-2H-pyrazolo[3,4-b]pyridine]
23 | 180 °C | CN1CCOC(C2=C(C#N)C(c3cccc(C#N)c3Br)c3c[nH]nc3N2)C1 (stereo not drawn) (as salt: trifluoroacetate) [Example 1046, 4-(2-Bromo-3-cyanophenyl)-5-cyano-4,7-dihydro-6-(4-methylmorpholin-2-yl)-2H-pyrazolo[3,4-b]pyridine]
24 | > 270 °C | CN1CCC(C2=C(C#N)C(c3ccccc3Cl)c3c[nH]nc3N2)CC1 (stereo not drawn) (as salt: trifluoroacetate) [Example 1056, 4-(2-Chlorophenyl)-5-cyano-4,7-dihydro-6-(1-methylpiperidin-4-yl)-2H-pyrazolo[3,4-b]pyridine]
25 | 159 °C | CCCC1=C(C(=O)OCC)C(c2cccc3nonc23)c2c[nH]nc2N1 (single isomer, unassigned; (+)) [Example 116, (+)Ethyl 4-(2,1,3-benzoxadiazol-4-yl)-4,7-dihydro-6-propyl-2H-pyrazolo[3,4-b]pyridine-5-carboxylate]
26 | 159 to 161 °C | CCCC1=C(C(=O)OCC)C(c2cccc3c2OCCC3)c2c[nH]nc2N1 (single isomer, unassigned; (+)) [Example 187, (+)Ethyl 4-(3,4-dihydro-2H-benzopyran-8-yl)-4,7-dihydro-6-propyl-2H-pyrazolo[3,4-b]pyridine-5-carboxylate]
27 | 160 °C | CCCC1=C(C(=O)OCC)C(c2cccc3nonc23)c2c[nH]nc2N1 (single isomer, unassigned; (-)) [Example 117, (−)Ethyl 4-(2,1,3-benzoxadiazol-4-yl)-4,7-dihydro-6-propyl-2H-pyrazolo[3,4-b]pyridine-5-carboxylate]
28 | 160 to 161 °C | CCCC1=C(C(=O)OCC)C(c2cccc3c2OCCC3)c2c[nH]nc2N1 (single isomer, unassigned; (-)) [Example 188, (−)Ethyl 4-(3,4-dihydro-2H-benzopyran-8-yl)-4,7-dihydro-6-propyl-2H-pyrazolo[3,4-b]pyridine-5-carboxylate]
29 | 144 to 146 °C | CCOC(=O)C1=C(C(F)(F)F)Nc2n[nH]cc2C1c1ccccc1OC (stereo not drawn) [Example 15, Ethyl 4,7-dihydro-4-(2-methoxyphenyl)-6-trifluoromethyl-2H-pyrazolo[3,4-b]pyridine-5-carboxylate]
30 | 182 to 186 °C | CCOC(=O)C1=C(C(F)(F)F)Nc2n[nH]cc2C1c1ccccc1C(F)(F)F (stereo not drawn) [Example 16, Ethyl 4,7-dihydro-6-trifluoromethyl-4-(2-trifluoromethylphenyl)-2H-pyrazolo[3,4-b]pyridine-5-carboxylate]
31 | 144 to 145 °C | CCOC(=O)C1=C(C(F)(F)F)Nc2n[nH]cc2C1c1cccc(Cl)c1 (stereo not drawn) [Example 17, Ethyl 4-(3-chlorophenyl)-4,7-dihydro-6-trifluoromethyl-2H-pyrazolo[3,4-b]pyridine-5-carboxylate]
32 | 176 to 178 °C | CCOC(=O)C1=C(C(F)(F)F)Nc2n[nH]cc2C1c1ccc(Cl)cc1 (stereo not drawn) [Example 18, Ethyl 4-(4-chlorophenyl)-4,7-dihydro-6-trifluoromethyl-2H-pyrazolo[3,4-b]pyridine-5-carboxylate]
33 | 159 to 161 °C | CCOC(=O)C1=C(C(F)(F)F)Nc2n[nH]cc2C1c1ccc(OC)cc1 (stereo not drawn) [Example 19, Ethyl 4,7-dihydro-4-(4-methoxyphenyl)-6-trifluoromethyl-2H-pyrazolo[3,4-b]pyridine-5-carboxylate]
34 | 157 to 160 °C | CCOC(=O)C1=C(C(F)(F)F)Nc2n[nH]cc2C1c1ccc(C(=O)OCC)cc1 (stereo not drawn) [Example 20, Ethyl 4-(4-ethoxycarbonylphenyl)-4,7-dihydro-6-trifluoromethyl-2H-pyrazolo[3,4-b]pyridine-5-carboxylate]
35 | 165 to 168 °C | CCOC(=O)C1=C(C(F)(F)F)Nc2n[nH]c(C)c2C1c1ccccc1Cl (stereo not drawn) [Example 21, Ethyl 4-(2-chlorophenyl)-4,7-dihydro-3-methyl-6-trifluoromethyl-2H-pyrazolo[3,4-b]pyridine-5-carboxylate]
36 | 157 to 161 °C | CCOC(=O)C1=C(C(F)(F)F)Nc2n[nH]cc2C1c1cccs1 (stereo not drawn) [Example 22, Ethyl 4,7-dihydro-4-(thiophen-2-yl)-6-trifluoromethyl-2H-pyrazolo[3,4-b]pyridine-5-carboxylate]
37 | 140 to 145 °C | CCOC(=O)C1=C(C(F)(F)F)Nc2n[nH]cc2C1c1ccsc1 (stereo not drawn) [Example 23, Ethyl 4,7-dihydro-4-(thiophen-3-yl)-6-trifluoromethyl-2H-pyrazolo[3,4-b]pyridine-5-carboxylate]
38 | 119 to 120 °C | CCOC(=O)C1=C(C(F)(F)F)Nc2n[nH]cc2C1c1cccc2ccccc12 (stereo not drawn) [Example 24, Ethyl 4,7-dihydro-4-(1-naphthyl)-6-trifluoromethyl-2H-pyrazolo[3,4-b]pyridine-5-carboxylate]
39 | 139 to 141 °C | CCCC1=C(C(=O)OCC)C(c2ccccc2)c2c[nH]nc2N1.O=C(O)/C=C\C(=O)O (stereo not drawn) [Example 25, Ethyl 4,7-dihydro-4-phenyl-6-propyl-2H-pyrazolo[3,4-b]pyridine-5-carboxylate maleate]
40 | 192 to 194 °C | CCCC1=C(C(=O)OCC)C(c2ccccc2F)c2c[nH]nc2N1 (stereo not drawn) [Example 26, Ethyl 4-(2-fluorophenyl)-4,7-dihydro-6-propyl-2H-pyrazolo[3,4-b]pyridine-5-carboxylate]
41 | 202 to 205 °C | CCCC1=C(C(=O)OCC)C(c2ccccc2Cl)c2c[nH]nc2N1 (stereo not drawn) [Example 27, Ethyl 4-(2-chlorophenyl)-4,7-dihydro-6-propyl-2H-pyrazolo[3,4-b]pyridine-5-carboxylate]
42 | 203 to 207 °C | CCCC1=C(C(=O)OC)C(c2ccccc2Cl)c2c[nH]nc2N1 (stereo not drawn) [Example 28, Methyl 4-(2-chlorophenyl)-4,7-dihydro-6-propyl-2H-pyrazolo[3,4-b]pyridine-5-carboxylate]
